# Assay results: US20220120753A1, “METHOD FOR DETERMINING PROGNOSIS OF CANCER” (The University of Tokyo, priority 2018, published 2022)
# Peptide text beside a SMILES is read from it. * marks the point of attachment. Cbz = O=C(OCc1ccccc1)*
# T1: KDM4B (UniProt O94953 1-1096)
# T1 construct: Endogenous KDM4B in MCF-7 nuclear extract or cell lysate; also called histone lysine demethylase KDM4B
# T1 sequence (looked up): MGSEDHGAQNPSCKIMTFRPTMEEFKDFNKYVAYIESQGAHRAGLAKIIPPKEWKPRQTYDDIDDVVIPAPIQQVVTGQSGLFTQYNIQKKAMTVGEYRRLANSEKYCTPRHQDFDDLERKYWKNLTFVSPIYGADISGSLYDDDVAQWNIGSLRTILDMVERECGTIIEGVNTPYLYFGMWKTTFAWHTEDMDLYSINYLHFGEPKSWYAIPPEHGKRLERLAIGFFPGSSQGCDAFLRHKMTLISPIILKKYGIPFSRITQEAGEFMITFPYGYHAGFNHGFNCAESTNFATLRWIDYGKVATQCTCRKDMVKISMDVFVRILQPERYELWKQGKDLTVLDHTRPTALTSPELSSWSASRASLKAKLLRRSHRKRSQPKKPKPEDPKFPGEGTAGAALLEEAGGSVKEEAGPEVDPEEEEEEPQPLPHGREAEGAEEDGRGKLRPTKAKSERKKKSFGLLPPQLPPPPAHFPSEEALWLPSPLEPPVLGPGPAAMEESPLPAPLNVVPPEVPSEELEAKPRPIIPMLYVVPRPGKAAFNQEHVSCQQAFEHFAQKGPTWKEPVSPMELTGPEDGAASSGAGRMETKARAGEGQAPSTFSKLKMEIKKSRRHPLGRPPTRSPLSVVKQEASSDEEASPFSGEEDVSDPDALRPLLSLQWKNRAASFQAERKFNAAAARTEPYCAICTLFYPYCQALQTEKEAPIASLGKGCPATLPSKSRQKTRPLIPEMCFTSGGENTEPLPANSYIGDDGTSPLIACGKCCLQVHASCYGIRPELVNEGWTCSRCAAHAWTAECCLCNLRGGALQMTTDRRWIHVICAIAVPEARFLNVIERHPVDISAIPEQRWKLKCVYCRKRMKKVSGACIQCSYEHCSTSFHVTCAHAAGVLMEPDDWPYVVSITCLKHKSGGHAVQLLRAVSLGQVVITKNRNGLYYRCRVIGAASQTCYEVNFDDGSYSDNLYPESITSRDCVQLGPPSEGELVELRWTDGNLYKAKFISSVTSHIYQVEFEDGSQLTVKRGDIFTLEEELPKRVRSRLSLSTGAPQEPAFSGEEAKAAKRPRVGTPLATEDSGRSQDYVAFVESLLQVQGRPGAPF
# B1: Estrogen receptor α (ERα) (receptor, UniProt P03372 1-595, looked up)
# chain: MTMTLHTKASGMALLHQIQGNELEPLNRPQLKIPLERPLGEVYLDSSKPAVYNYPEGAAYEFNAAAAANAQVYGQTGLPYGPGSEAAAFGSNGLGGFPPLNSVSPSPLMLLHPPPQLSPFLQPHGQQVPYYLENEPSGYTVREAGPPAFYRPNSDNRRQGGRERLASTNDKGSMAMESAKETRYCAVCNDYASGYHYGVWSCEGCKAFFKRSIQGHNDYMCPATNQCTIDKNRRKSCQACRLRKCYEVGMMKGGIRKDRRGGRMLKHKRQRDDGEGRGEVGSAGDMRAANLWPSPLMIKRSKKNSLALSLTADQMVSALLDAEPPILYSEYDPTRPFSEASMMGLLTNLADRELVHMINWAKRVPGFVDLTLHDQVHLLECAWLEILMIGLVWRSMEHPGKLLFAPNLLLDRNQGKCVEGMVEIFDMLLATSSRFRMMNLQGEEFVCLKSIILLNSGVYTFLSSTLKSLEEKDHIHRVLDKITDTLIHLMAKAGLTLQQQHQRLAQLLLILSHIRHMSNKGMEHLYSMKCKNVVPLYDLLLEMLDAHRLHAPTSRGGASVEETDQSHLATAGSTSSHSLQKYYITGEAEGFPATV
# notes: Endogenous ERα in MCF-7 nuclear extract or cell lysate; also called ERalpha
# B2: wild-type FLAG-Fbxo22 (Wt) (other)
# chain: MEPVGCCGECRGSSVDPRSTFVLSNLAEVVERVLTFLPAKALLRVACVCRLWRECVRRVLRTHRSVTWISAGLAEAGHLEGHCLVRVVAEELENVRILPHTVLYMADSETFISLEECRGHKRARKRTSMETALALEKLFPKQCQVLGIVTPGIVVTPMGSGSNRPQEIEIGESGFALLFPQIEGIKIQPFHFIKDPKNLTLERHQLTEVGLLDNPELRVVLVFGYNCCKVGASNYLQQVVSTFSDMNIILAGGQVDNLSSLTSEKNPLDIDASGVVGLSFSGHRIQSATVLLNEDVSDEKTAEAAMQRLKAANIPEHNTIGFMFACVGRGFQYYRAKGNVEADAFRKFFPSVPLFGFFGNGEIGCDRIVTGNFILRKCNEVKDDDLFHSYTTIMALIHLGSSK
# notes: Dox-induced expression in MCF-7 cells; The tag is placed first by the order in the name; not shown: FLAG tag
# Legend:
# ERα = experiment: ChIP-Seq analysis of ERα binding in MCF-7 cells; format: cell-based, human; settings: 2 hours, E2 line = E2 (10 nM), 4-OHT line = E2+4-OHT
# Text: Thereafter, DNA was extracted using a DNA purification column.
# [1] = system: ERα-dependent transcription; experiment: qPCR of ERα target gene transcripts (EBAG9, GREB1) in MCF-7 cells; format: cell-based, human; settings: for effect of removing Fbxo22 on the antagonistic activity: MCF-7 expressing Dox-induced shRNAs, E2 6 h then drug 12 h
# Procedure: (§1) Using total RNA derived from individual cells recovered over time, qPCR was carried out. […] Using total RNA prepared from the treated cells, qPCR was carried out. […] Using the nucleus extract, immunoprecipitation and immunoblotting were carried out.
# Using total RNA prepared from the cells over time, qPCR was carried out.
# (§2) Total RNA was prepared from the cells treated with various drugs, and qPCR was carried out.
# The cells were washed with PBS three times, and were then cultured in phenol red-non-added DMEM (supplemented with 5% charcoal-stripped FBS) for 72 hours.
# Quantitative RT-PCR was carried out according to the method described in Johmura et al., Molecular Cell 55: 73-84, 2014. Total RNA was extracted using ISOGEN II (Wako), and using this as a template, cDNA was synthesized using SuperScript II cDNA synthesis kit (Invitrogen). PCR amplification was carried out in a 96-well optical reaction plate, using Power SYBR Green PCR Master Mix (Applied Biosystems). The relative expression ratio of individual genes was normalized with respect to the expression level of GAPDH.
# [2] = system: ERα complex with KDM4B and SRC-3
# Procedure: as §1
# The obtained cells were immunostained with anti-FLAG antibodies. Representative images are shown.
# as §2
# Immunoprecipitation and immunoblotting were carried out according to the method described in Johmura et al., Molecular Cell 55: 73-84, 2014. The cells were dissolved in a TBSN buffer (20 mM Tris-Cl (pH 8.0), 150 mM NaCl, 0.5% NP-40, 5 mM EGTA, 1.5 mM EDTA, and 0.5 mM Na3VO4). The obtained cell lysate was centrifuged at 4° C. at 15,000×g for 20 minutes, and was then used in immunoprecipitation using an antibody.
# Regarding immunoprecipitation of ERα and KDM4B, a nuclear extract was prepared according to the method described in Hirokawa et al., Cancer Res. 74: 3880-3889, 2014. Cell pellets were suspended in buffer A (10 mM Hepes-KOH pH 7.9, 10 mM KCl, 1.5 mM MgCl2, 0.5 mM DTT, 0.5 mM PMSF, and protease inhibitor cocktail (Nakalai Tesque)) having five times the volume of the cell pellets, and the suspension was then incubated on ice for 5 minutes. Thereafter, the cells were centrifuged at 4° C. at 500×g for 5 minutes, and the obtained cell pellets were then suspended in buffer A having two times the volume of the cell pellets for homogenization. The homogenized cell suspension was centrifuged at 4° C. at 4,000×g for 5 minutes, and a cell nucleus was recovered in a precipitate. To the recovered nucleus, an equal amount of buffer B (20 mM Hepes-KOH pH 7.9, 600 mM KCl, 1.5 mM MgCl2, 0.2 mM EDTA, 25% glycerol, 0.5 mM DTT, 0.5 mM PMSF, and protease inhibitor cocktail) was added and suspended, and the obtained mixture was then blended at 4° C. for 30 minutes, using a rotator. The nuclear extract was centrifuged at 4° C. at 16,000×g for 15 minutes, and was then recovered in a supernatant. The nuclear extract was dialyzed against buffer C (20 mM Hepes-KOH pH 7.9, 100 mM KCl, 0.2 mM EDTA, 20% glycerol, 0.5 mM DTT, and 0.5 mM PMSF). After completion of the dialysis, the nuclear extract was centrifuged at 4° C. at 16,000×g for 30 minutes, and the remaining precipitate was then eliminated.
# A protein (20 to 50 μg) was separated from the total cell lysate by SDS-PAGE, and was then transferred into a PVDF membrane (Millipore), which was then used in immunoblotting using various types of antibodies.
# N-CoR repressor = biological target: T2, N-CoR repressor (UniProt O75376 1-2440, limits assumed); experiment: co-IP and immunoblot, control MCF-7 nuclear extract after E2 then 4-OHT (FIG. 5B)
# T2 construct: Endogenous corepressor in MCF-7 nuclear extract
# KDM4B [3] = biological target: T1, KDM4B; experiment: co-IP (IP: ER) and immunoblot, MCF-7 nuclear extract after E2 (FIG. 2B)
# [4] = biological target: B1; experiment: anti-FLAG co-IP and immunoblot, MCF-7 cells expressing FLAG-Fbxo22 Wt or domain-deficient mutants (FIG. 3G)
# KDM4B [5] = biological target: T1, KDM4B; experiment: co-IP and immunoblot, E2-depleted MCF-7 cells with MG132 and 0.1, 1 or 10 nM E2 (FIG. 3I)
# T2 sequence (O75376 whole entry): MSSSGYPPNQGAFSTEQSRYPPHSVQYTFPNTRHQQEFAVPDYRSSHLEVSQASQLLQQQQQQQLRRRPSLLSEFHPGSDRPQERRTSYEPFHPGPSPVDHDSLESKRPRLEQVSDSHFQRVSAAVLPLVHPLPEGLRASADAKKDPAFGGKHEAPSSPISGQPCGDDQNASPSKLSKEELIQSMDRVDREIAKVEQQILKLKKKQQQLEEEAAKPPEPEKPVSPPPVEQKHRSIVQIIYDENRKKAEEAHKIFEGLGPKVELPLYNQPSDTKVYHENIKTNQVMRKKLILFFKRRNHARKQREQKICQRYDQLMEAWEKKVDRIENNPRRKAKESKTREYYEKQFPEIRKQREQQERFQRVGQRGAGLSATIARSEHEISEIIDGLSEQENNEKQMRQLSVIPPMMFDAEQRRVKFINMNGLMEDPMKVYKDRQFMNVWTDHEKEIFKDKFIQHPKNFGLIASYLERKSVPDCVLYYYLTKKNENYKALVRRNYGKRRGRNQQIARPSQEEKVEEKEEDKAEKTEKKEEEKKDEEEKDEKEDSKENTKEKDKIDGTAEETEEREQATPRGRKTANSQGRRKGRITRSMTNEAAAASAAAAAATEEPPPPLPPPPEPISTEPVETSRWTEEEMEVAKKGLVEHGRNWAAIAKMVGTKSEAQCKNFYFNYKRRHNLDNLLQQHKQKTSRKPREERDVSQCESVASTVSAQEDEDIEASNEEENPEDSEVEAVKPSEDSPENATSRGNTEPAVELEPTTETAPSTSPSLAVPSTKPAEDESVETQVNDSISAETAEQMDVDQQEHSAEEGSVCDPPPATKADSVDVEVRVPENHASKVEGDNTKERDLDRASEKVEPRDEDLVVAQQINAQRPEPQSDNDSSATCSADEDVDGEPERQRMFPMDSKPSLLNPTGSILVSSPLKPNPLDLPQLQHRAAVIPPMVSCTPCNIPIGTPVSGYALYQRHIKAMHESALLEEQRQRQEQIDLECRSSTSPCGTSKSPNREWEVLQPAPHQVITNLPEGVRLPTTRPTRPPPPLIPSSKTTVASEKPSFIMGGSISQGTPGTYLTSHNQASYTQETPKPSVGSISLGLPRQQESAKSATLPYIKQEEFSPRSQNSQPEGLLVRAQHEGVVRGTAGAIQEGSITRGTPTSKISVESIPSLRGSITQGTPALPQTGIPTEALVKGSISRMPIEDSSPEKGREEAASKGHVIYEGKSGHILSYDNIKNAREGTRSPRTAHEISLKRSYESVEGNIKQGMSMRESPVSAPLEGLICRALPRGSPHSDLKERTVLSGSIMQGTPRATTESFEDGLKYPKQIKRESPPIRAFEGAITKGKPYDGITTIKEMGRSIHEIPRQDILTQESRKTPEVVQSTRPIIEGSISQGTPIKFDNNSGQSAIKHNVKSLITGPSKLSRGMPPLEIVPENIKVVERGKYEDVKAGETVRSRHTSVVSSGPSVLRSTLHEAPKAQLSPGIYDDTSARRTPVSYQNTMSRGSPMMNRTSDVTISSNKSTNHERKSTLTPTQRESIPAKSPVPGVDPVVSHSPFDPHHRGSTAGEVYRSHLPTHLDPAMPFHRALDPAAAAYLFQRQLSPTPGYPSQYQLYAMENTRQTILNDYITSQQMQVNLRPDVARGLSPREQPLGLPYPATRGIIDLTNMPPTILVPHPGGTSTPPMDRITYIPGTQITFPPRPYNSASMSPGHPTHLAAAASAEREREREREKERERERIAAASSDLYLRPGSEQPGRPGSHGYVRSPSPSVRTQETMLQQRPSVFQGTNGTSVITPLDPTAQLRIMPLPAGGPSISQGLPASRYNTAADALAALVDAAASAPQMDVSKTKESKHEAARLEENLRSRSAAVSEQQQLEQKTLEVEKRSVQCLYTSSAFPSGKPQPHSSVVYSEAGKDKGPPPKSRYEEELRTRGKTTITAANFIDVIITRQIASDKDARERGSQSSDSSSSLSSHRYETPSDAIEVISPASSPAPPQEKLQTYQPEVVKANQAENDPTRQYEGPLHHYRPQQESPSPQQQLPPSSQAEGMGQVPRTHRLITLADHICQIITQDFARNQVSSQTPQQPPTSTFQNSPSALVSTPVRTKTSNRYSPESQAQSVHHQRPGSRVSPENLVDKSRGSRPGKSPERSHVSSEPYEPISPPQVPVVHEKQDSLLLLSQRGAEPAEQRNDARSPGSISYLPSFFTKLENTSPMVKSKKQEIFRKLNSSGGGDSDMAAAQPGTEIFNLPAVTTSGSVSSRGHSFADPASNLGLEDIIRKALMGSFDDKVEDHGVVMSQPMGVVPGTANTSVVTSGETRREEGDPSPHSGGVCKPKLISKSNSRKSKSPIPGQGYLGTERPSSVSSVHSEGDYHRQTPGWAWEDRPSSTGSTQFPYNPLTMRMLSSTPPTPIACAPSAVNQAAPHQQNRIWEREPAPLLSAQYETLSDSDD
molecule,measurement,setting,value
"C[C@]12CC[C@@H]3c4ccc(O)cc4CC[C@H]3[C@@H]1CC[C@@H]2O [E2, Estradiol]",ERα accumulation peaks detected,ERα; Fbxo22-depleted MCF-7 cells,"23,213"
same,ERα accumulation peaks detected,ERα; wild-type/control MCF-7 cells,"1,264"
C[C@]12CC[C@@H]3c4ccc(O)cc4C[C@@H](CCCCCCCCC[S+]([O-])CCCC(F)(F)C(F)(F)F)[C@H]3[C@@H]1CC[C@@H]2O (stereo partly shown) [Fulvestrant],effect of removing Fbxo22 on the antagonistic activity,[1],no effects
same,need of Fbxo22 for the dynamics of cofactors in treated cells,"[2]; MCF-7, E2 plus drug",not necessary
CC(C)C[C@@H](C=O)NC(=O)[C@H](CC(C)C)NC(=O)[C@H](CC(C)C)NC(=O)OCc1ccccc1 [MG132] (Cbz-Leu-Leu-Leu-aldehyde),E2-induced transcriptional activity of EBAG9 and GREB1 after removal of E2,"[1]; MCF-7, E2 removed from medium, proteasome inhibitor added",recovered
same,transcript levels of EBAG9 and GREB1 after treatment with 4-OHT,"[1]; MCF-7, E2 then 4-OHT, in the presence of MG132 (10 μg/ml) compared with absence",maintained at high levels
same,"dynamics of cofactors (complex dissociation, N-CoR binding) after 4-OHT","[2]; MCF-7, E2+4-OHT+MG132",suppressed
same,dissociation of KDM4B and SRC-3 from ERα by elimination of E2,"[2]; MCF-7, E2 depletion plus proteasome inhibitor",suppressed
CN(C)CCOc1ccc(/C(=C(/CCCl)c2ccccc2)c2ccccc2)cc1 [Toremifene],effect of removing Fbxo22 on the antagonistic activity,[1],effects similar to those on 4-OHT
B1,binding result,N-CoR repressor,binds
same,binding result,KDM4B [3],binds
B2,binding result,[4],binds
same,binding result,KDM4B [5],binds
